For assay [1], the target named is T1, Gal4-RORγ-LBD (Homo sapiens, UniProt P51449).
T1 construct: expressed in transfected cells; host or cells: HEK-293 cells (pcDNA3.1neo plasmid)
T1 sequence (P51449 269-508 limits assumed): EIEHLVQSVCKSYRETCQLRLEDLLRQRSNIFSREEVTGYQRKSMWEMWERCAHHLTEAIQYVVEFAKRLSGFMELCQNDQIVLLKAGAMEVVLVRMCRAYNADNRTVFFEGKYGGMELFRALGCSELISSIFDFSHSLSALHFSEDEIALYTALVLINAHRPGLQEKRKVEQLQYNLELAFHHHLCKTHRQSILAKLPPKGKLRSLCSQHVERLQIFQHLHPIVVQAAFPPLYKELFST
The assay is described as follows: Gal4-RORγ Luciferase Reporter Assay in HEK-293T Cells. It counts as cell-based. The settings on record: HEK-293 cells. In a few lines:
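HEK-293 cells were transiently co-transfected with Gal4-RORγ-LBD and pGL4.31 Gal4-luciferase, with ursolic acid added at 2 μM final. Compounds were incubated overnight at 37° C. in 0.2% DMSO and luminescence read with One-Glo. Max Response is the upper plateau of a 4-parameter logistic fit, with signal lacking ursolic acid or compound set to 100.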

Assay [2] deals with T2, RORγ-LBD (Homo sapiens, UniProt P51449).
T2 construct: made in house; host or cells: SF9 cells (baculovirus)
T2 sequence (P51449 269-508 limits assumed): T1 sequence (P51449 269-508 limits assumed)
The assay is described as follows: RORγ-Ligand Binding Domain (LBD) TR-FRET Assay.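 On TR-FRET Assay Max Response: 665/615 nm ratio relative to signal without ursolic acid or compound set at 100.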 It counts as biochemical. Summed up:
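Compounds, diluted in DMSO and then in assay buffer (1% DMSO final), were combined with His-tagged RORγ-LBD lysate at roughly 3 nM final and a 200 nM biotinylated SRC1 LXXLL peptide. Ursolic acid was included at 2 μM final. Coactivator recruitment was detected by TR-FRET.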
In general terms: Time-resolved FRET reads energy transfer from a long-lived donor to a nearby acceptor.

Setting [3] is: luciferase reporter, with 2 μM ursolic acid.

pEC50: −log10 of the molar value.

In general, pEC50 refers to the EC50 on a negative log10 scale, so that one unit is a factor of ten. Higher therefore signals a low EC50.

For `CC(C)(C[C@H]1CN(S(=O)(=O)c2cccc(C(F)(F)F)c2)c2cc(-c3ccccc3OC(F)(F)F)ccc2O1)C(=O)O` [Compound 32Z, (S)-2,2-dimethyl-3-(6-(2-(trifluoromethoxy)phenyl)-4-((3-(trifluoromethyl)phenyl)sulfonyl)-3,4-dihydro-2H-benzo[b][1,4]-oxazin-2-yl)propanoic acid], in assay [1] (2 μM ursolic acid), the negative-log EC50 (pEC50) was above 6.30 and the “Gal4-RORγ Assay Max Response” value was “** (The symbol “**” indicates a value in the range of greater than 90 to 150)”. In assay [2], the pEC50 is above 6.30 and the “TR-FRET Assay Max Response” value was “*** (The symbol “***” indicates a value in the range of greater than 150 to 200)”.

Turning to `O=S(=O)(c1cccc(C(F)(F)F)c1)N1C[C@H](CCCO)Oc2ccc(-c3ccc(F)cc3F)cc21` [Compound 34A, (S)-3-(6-(2,4-difluorophenyl)-4-((3-(trifluoromethyl)phenyl)-sulfonyl)-3,4-dihydro-2H-benzo[b][1,4]oxazin-2-yl)propan-1-ol], in assay [1] (setting [3]), the pEC50 was above 6.30 and the “Gal4-RORγ Assay Max Response” value is recorded as “* (The symbol “*” indicates a value in the range of 25 to 90)”. Besides, in assay [2], the pEC50 is above 6.30 and the “TR-FRET Assay Max Response” value is on record as “**** (The symbol “****” indicates a value greater than 200)”.

As to `O=S(=O)(c1cccc(C(F)(F)F)c1)N1C[C@H](CCCO)Oc2ccc(-c3ccc(F)c(F)c3)cc21` [Compound 34B, (S)-3-(6-(3,4-difluorophenyl)-4-((3-(trifluoromethyl)phenyl)-sulfonyl)-3,4-dihydro-2H-benzo[b][1,4]oxazin-2-yl)propan-1-ol], in assay [1] (setting [3]), the pEC50 is above 6.30 and the “Gal4-RORγ Assay Max Response” value is reported as “* (The symbol “*” indicates a value in the range of 25 to 90)”. Further, in assay [2], the pEC50 is above 6.30 and the “TR-FRET Assay Max Response” value was “**** (The symbol “****” indicates a value greater than 200)”.

With `O=S(=O)(c1cccc(C(F)(F)F)c1)N1C[C@H](CCCO)Oc2ccc(-c3cc(F)cc(F)c3)cc21` [Compound 34C, (S)-3-(6-(3,5-difluorophenyl)-4-((3-(trifluoromethyl)phenyl)-sulfonyl)-3,4-dihydro-2H-benzo[b][1,4]oxazin-2-yl)propan-1-ol], in assay [1] (setting [3]), the pEC50 is above 6.30 and the “Gal4-RORγ Assay Max Response” value is given as “** (The symbol “**” indicates a value in the range of greater than 90 to 150)”. Moreover, in assay [2], the pEC50 was above 6.30 and the “TR-FRET Assay Max Response” value is “**** (The symbol “****” indicates a value greater than 200)”.

Take `O=S(=O)(c1cccc(C(F)(F)F)c1)N1C[C@H](CCCO)Oc2ccc(-c3cccc(Cl)c3)cc21` [Compound 34D, (S)-3-(6-(3-chlorophenyl)-4-((3-(trifluoromethyl)phenyl)sulfonyl)-3,4-dihydro-2H-benzo[b][1,4]-oxazin-2-yl)propan-1-ol]: in assay [1] (setting [3]), the pEC50 was above 6.30 and the “Gal4-RORγ Assay Max Response” value is “** (The symbol “**” indicates a value in the range of greater than 90 to 150)”. In assay [2], the pEC50 was above 6.30 and the “TR-FRET Assay Max Response” value is reported as “**** (The symbol “****” indicates a value greater than 200)”.

As to `CN(C)c1cccc(-c2ccc3c(c2)N(S(=O)(=O)c2cccc(C(F)(F)F)c2)C[C@H](CCCOc2noc(=O)[nH]2)O3)n1` [Compound 35, (S)-3-(3-(6-(6-(dimethylamino)pyridin-2-yl)-4-((3-(trifluoromethyl)phenyl)sulfonyl)-3,4-dihydro-2H-benzo[b][1,4]oxazin-2-yl)propoxy)-1,2,4-oxadiazol-5(4H)-one], in assay [1] (setting [3]), the pEC50 is above 6.30 and the “Gal4-RORγ Assay Max Response” value was “** (The symbol “**” indicates a value in the range of greater than 90 to 150)”. For the same compound, in assay [2], the negative-log EC50 (pEC50) was above 6.30 and the “TR-FRET Assay Max Response” value is reported as “**** (The symbol “****” indicates a value greater than 200)”.

As to `O=c1[nH]c(OCCC[C@H]2CN(S(=O)(=O)c3cccc(C(F)(F)F)c3)c3cc(-c4cc(F)cc(F)c4)ccc3O2)no1` [Compound 36A, (S)-3-(3-(6-(3,5-difluoro-phenyl)-4-((3-(trifluoro-methyl)phenyl)sulfonyl)-3,4-dihydro-2H-benzo[b][1,4]-oxazin-2-yl)propoxy)-1,2,4-oxadiazol-5(4H)-one], in assay [1] (setting [3]), the pEC50 is above 6.30 and the “Gal4-RORγ Assay Max Response” value is on record as “**** (The symbol “****” indicates a value greater than 200)”. Moreover, in assay [2], the pEC50 was above 6.30 and the “TR-FRET Assay Max Response” value is listed as “**** (The symbol “****” indicates a value greater than 200)”.

Take `COc1cccc(-c2ccc3c(c2)N(S(=O)(=O)c2cccc(C(F)(F)F)c2)C[C@H](CCCOc2noc(=O)[nH]2)O3)c1` [Compound 36B, (S)-3-(3-(6-(3-methoxyphenyl)-4-((3-(trifluoromethyl)phenyl)-sulfonyl)-3,4-dihydro-2H-benzo[b][1,4]oxazin-2-yl)propoxy)-1,2,4-oxadiazol-5(4H)-one]: in assay [1] (setting [3]), the pEC50 was above 6.30 and the “Gal4-RORγ Assay Max Response” value was “** (The symbol “**” indicates a value in the range of greater than 90 to 150)”. In assay [2], the pEC50 was above 6.30 and the “TR-FRET Assay Max Response” value is recorded as “**** (The symbol “****” indicates a value greater than 200)”.

Regarding `O=c1[nH]c(OCCC[C@H]2CN(S(=O)(=O)c3cccc(C(F)(F)F)c3)c3cc(-c4cccc(C(F)(F)F)n4)ccc3O2)no1` [Compound 36C, (S)-3-(3-(4-((3-(trifluoro-methyl)phenyl)sulfonyl)-6-(6-(trifluoromethyl)-pyridin-2-yl)-3,4-dihydro-2H-benzo[b][1,4]oxazin-2-yl)propoxy)-1,2,4-oxadiazol-5(4H)-one], in assay [1] (setting [3]), the pEC50 was above 6.30 and the “Gal4-RORγ Assay Max Response” value is “** (The symbol “**” indicates a value in the range of greater than 90 to 150)”. Further, in assay [2], the pEC50 is above 6.30 and the “TR-FRET Assay Max Response” value is “**** (The symbol “****” indicates a value greater than 200)”.

In the case of `O=C(O)[C@@H](O)CC[C@H]1CN(S(=O)(=O)c2cccc(C(F)(F)F)c2)c2cc(-c3cc(F)ccc3F)ccc2O1` [Compound 37, (S)-4-((S)-6-(2,5-difluorophenyl)-4-((3-(trifluoromethyl)phenyl)sulfonyl)-3,4-dihydro-2H-benzo[b][1,4]oxazin-2-yl)-2-hydroxybutanoic acid], in assay [1] (setting [3]), the negative-log EC50 (pEC50) was 5.30 to 6.30 and the “Gal4-RORγ Assay Max Response” value was “*** (The symbol “***” indicates a value in the range of greater than 150 to 200)”. Besides, in assay [2], the pEC50 is above 6.30 and the “TR-FRET Assay Max Response” value is recorded as “*** (The symbol “***” indicates a value in the range of greater than 150 to 200)”.

Consider `O=C(O)[C@H](O)CC[C@H]1CN(S(=O)(=O)c2cccc(C(F)(F)F)c2)c2cc(-c3cc(F)ccc3F)ccc2O1` [Compound 38, (R)-4-((S)-6-(2,5-difluorophenyl)-4-((3-(trifluoromethyl)phenyl)sulfonyl)-3,4-dihydro-2H-benzo[b][1,4]oxazin-2-yl)-2-hydroxybutanoic acid], for which, in assay [1] (setting [3]), the pEC50 was above 6.30 and the “Gal4-RORγ Assay Max Response” value is listed as “** (The symbol “**” indicates a value in the range of greater than 90 to 150)”. In assay [2], the pEC50 was above 6.30 and the “TR-FRET Assay Max Response” value is given as “*** (The symbol “***” indicates a value in the range of greater than 150 to 200)”.

Source of the values: US10611740B2, “Aryl dihydro-2H-benzo[b][1,4]oxazine sulfonamide and related compounds for use as agonists of RORγ and the treatment of disease” (Lycera Corporation, priority 2015, dated 2020).
